Experimental data from patent publication US6908919B2, “Substituted polycyclic aryl and heteroaryl pyrazinones useful for selective inhibition of the coagulation cascade” (Pharmacia Corporation, priority 1999, dated 2005).

Biological target: Human factor Xa (Homo sapiens, UniProt P00742)
Assay: Xa Assay
Type: biochemical
Parameters: purchased Enzyme Research Laboratories, South Bend Ind

Chain of Human factor Xa (P00742 41-179 limits assumed): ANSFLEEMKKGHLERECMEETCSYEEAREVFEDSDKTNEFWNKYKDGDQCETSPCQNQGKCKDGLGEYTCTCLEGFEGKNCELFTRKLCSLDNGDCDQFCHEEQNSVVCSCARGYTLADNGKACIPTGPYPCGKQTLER
Chain of Human factor Xa (P00742 235-488 limits assumed): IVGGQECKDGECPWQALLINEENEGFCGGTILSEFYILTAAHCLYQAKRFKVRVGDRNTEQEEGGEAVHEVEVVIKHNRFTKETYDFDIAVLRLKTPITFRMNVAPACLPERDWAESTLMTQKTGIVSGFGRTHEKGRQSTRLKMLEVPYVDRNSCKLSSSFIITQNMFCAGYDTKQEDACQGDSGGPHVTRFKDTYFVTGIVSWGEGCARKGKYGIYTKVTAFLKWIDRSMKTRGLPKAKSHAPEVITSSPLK

Compound	% Inhibition Factor Xa (30 µM) (at 30 µM inhibitor)	% Inhibition Factor Xa (30 µM) (at 30 µM) [%]
N=C(N)c1ccc(CNC(=O)Cn2c(-c3ccccc3)c(Cl)nc(NCc3cc(F)ccc3F)c2=O)cc1 [1512-36]	9%	–
N=C(N)c1ccc(CNC(=O)Cn2c(-c3ccccc3)c(Cl)nc(NCc3cc(F)cc(F)c3)c2=O)cc1 [1512-39]	4%	–
N=C(N)c1ccc(CNC(=O)Cn2c(-c3ccccc3)c(Cl)nc(NCCc3cccc(C(F)(F)F)c3)c2=O)cc1 [1512-41]	4%	–
N=C(N)c1ccc(CNC(=O)Cn2c(-c3ccccc3)c(Cl)nc(NCc3ccccc3OC(F)(F)F)c2=O)cc1 [1512-42]	1%	–
N=C(N)c1ccc(CNC(=O)Cn2c(-c3ccccc3)c(Cl)nc(NCc3c(F)cccc3F)c2=O)cc1 [1512-43]	9%	–
CN1CCCC1CCNc1nc(Cl)c(-c2ccccc2)n(CC(=O)NCc2ccc(C(=N)N)cc2)c1=O (stereo not drawn) [1512-46]	10%	–
N=C(N)c1ccc(CNC(=O)Cn2c(-c3ccccc3)c(Cl)nc(NCCc3ccccn3)c2=O)cc1 [1512-47]	13%	–
N=C(N)c1ccc(CNC(=O)Cn2c(-c3cccc(N)c3)c(Cl)nc(NCCN3CCCC3)c2=O)cc1 [1543-03]	–	34
CNc1nc(Cl)c(-c2cccc(N)c2)n(CC(=O)NCc2ccc(C(=N)N)cc2)c1=O [1543-05]	–	14
N=C(N)c1ccc(CNC(=O)Cn2c(-c3cccc(N)c3)c(Cl)nc(NCCCn3ccnc3)c2=O)cc1 [1543-07]	–	19
CN(C)CCNc1nc(Cl)c(-c2cccc(N)c2)n(CC(=O)NCc2ccc(C(=N)N)cc2)c1=O [1543-09]	–	12
N=C(N)c1ccc(CNC(=O)Cn2c(-c3cccc(N)c3)c(Cl)nc(NCCCO)c2=O)cc1 [1543-13]	–	12
N=C(N)c1ccc(CNC(=O)Cn2c(-c3cccc(N)c3)c(Cl)nc(NCCN3CCCCC3)c2=O)cc1 [1543-15]	–	41
CC(CNc1nc(Cl)c(-c2cccc(N)c2)n(CC(=O)NCc2ccc(C(=N)N)cc2)c1=O)N(C)C (stereo not drawn) [1543-19]	–	11
N=C(N)c1ccc(CNC(=O)Cn2c(-c3cccc(N)c3)c(Cl)nc(NCCCCN3CCCC3)c2=O)cc1 [1543-21]	–	27
N=C(N)c1ccc(CNC(=O)Cn2c(-c3cccc(N)c3)c(Cl)nc(NCCCN3CCCC3)c2=O)cc1 [1543-27]	–	27
CCNc1nc(Cl)c(-c2cccc(N)c2)n(CC(=O)NCc2ccc(C(=N)N)cc2F)c1=O [1543-31]	–	8
N=C(N)c1ccc(CNC(=O)Cn2c(-c3cccc(N)c3)c(Cl)nc(NC3CC3)c2=O)c(F)c1 [1543-33]	–	14
N=C(N)c1ccc(CNC(=O)Cn2c(-c3cccc(N)c3)c(Cl)nc(NC3CCCC3)c2=O)c(F)c1 [1543-34]	–	20
CCCNc1nc(Cl)c(-c2cccc(N)c2)n(CC(=O)NCc2ccc(C(=N)N)cc2F)c1=O [1543-35]	–	8
CCCCNc1nc(Cl)c(-c2cccc(N)c2)n(CC(=O)NCc2ccc(C(=N)N)cc2F)c1=O [1543-36]	–	15
CC(C)CNc1nc(Cl)c(-c2cccc(N)c2)n(CC(=O)NCc2ccc(C(=N)N)cc2F)c1=O [1543-38]	–	14

Compound	% Inhibition Factor Xa (30 µM) (at 30 µM inhibitor)	% Inhibition Factor Xa (30 µM) (at 30 µM) [%]
N=C(N)c1ccc(CNC(=O)Cn2c(-c3cccc(N)c3)c(Cl)nc(NC3CCC3)c2=O)c(F)c1 [1543-39]	–	14
CC(C)Nc1nc(Cl)c(-c2cccc(N)c2)n(CC(=O)NCc2ccc(C(=N)N)cc2F)c1=O [1543-40]	–	10
N=C(N)c1ccc(CNC(=O)Cn2c(-c3ccccc3)c(Cl)nc(NCCc3ccncc3)c2=O)cc1 [Example 19]	22% @ 30	–
N=C(N)c1ccc(CNC(=O)Cn2c(-c3cccc(Cl)c3)c(Cl)nc(NCc3ccccc3)c2=O)cc1 [Example 23]	38% @ 30	–
N=C(N)NC/C=C\CNC(=O)Cn1c(-c2ccccc2)cnc(NCCc2ccccc2)c1=O [Example 37]	0%	–
Nc1n[nH]c2ccc(CNC(=O)Cn3c(-c4ccccc4)cnc(NCCc4ccccc4)c3=O)cc12 [Example 38]	22%	–
Nc1n[nH]c2cc(CNC(=O)Cn3c(-c4ccccc4)cnc(NCCc4ccccc4)c3=O)ccc12 [Example 39]	0%	–
N=C(N)c1ccc(CNC(=O)Cn2c(-c3cccc(N)c3)c(Cl)nc(NC3CCC3)c2=O)cc1F [Example 40]	0%	–
CC(C)Nc1nc(Cl)c(-c2cccc(N)c2)n(CC(=O)NCc2ccc(C(=N)N)c(F)c2)c1=O [Example 42]	0%	–
CC(C)Nc1ncc(-c2cccc(N)c2)n(CC(=O)NCc2ccc(C(=N)N)c(F)c2)c1=O [Example 43]	0%	–
CC(C)Nc1nc(Cl)c(-c2cccc(N)c2)n(CC(=O)NCCc2ccc(C(=N)N)cc2)c1=O [Example 62]	10%	–
COC(=O)c1cccc(-c2c(Cl)nc(NC(C)C)c(=O)n2CC(=O)NCc2ccc(C(=N)N)cc2)c1 [Example 64]	19%	–
CC(C)Nc1nc(Cl)c(-c2cccc(C(=O)O)c2)n(CC(=O)NCc2ccc(C(=N)N)cc2)c1=O [Example 65]	12%	–
N=C(N)c1ccc(CNC(=O)Cn2c(-c3ccccc3O)c(Cl)nc(NC3CCC3)c2=O)cc1 [Example 66]	0%	–
CC(C)Nc1nc(Cl)c(-c2cc(N)ccc2F)n(CC(=O)NCc2ccc(C(=N)N)cc2F)c1=O [Example 73]	0%	–
CC(C)Nc1nc(Cl)c(-c2ccc(Cl)nc2)n(CC(=O)NCc2ccc(C(=N)N)cc2F)c1=O [Example 74]	13%	–
CC(C)Nc1nc(Cl)c(-c2cccnc2)n(CC(=O)NCc2ccc(C(=N)N)cc2)c1=O [Example 75]	9%	–
CSc1ccc(N)cc1-c1c(Cl)nc(NC(C)C)c(=O)n1CC(=O)NCc1ccc(C(=N)N)cc1 [Example 76]	0%	–
Cc1ccccc1-c1c(Cl)nc(NCCc2ccccc2)c(=O)n1CC(=O)NCc1ccc(C(=N)N)cc1 [Example 78]	16% @ 30	–
N=C(N)c1ccc(CNC(=O)Cn2c(-c3cccc4ccccc34)c(Cl)nc(NCCc3ccccc3)c2=O)cc1 [Example 80]	29% @ 30	–
Cc1cccc(-c2c(Cl)nc(NCCc3ccccc3)c(=O)n2CC(=O)NCc2ccc(C(=N)N)cc2)c1 [Example 81]	33% @ 30	–
N=C(N)c1ccc(CNC(=O)Cn2c(-c3ccc4ccccc4c3)c(Cl)nc(NCCc3ccccc3)c2=O)cc1 [Example 82]	32% @ 30	–

Compound	% Inhibition Factor Xa (30 µM) (at 30 µM inhibitor)	% Inhibition Factor Xa (30 µM) (at 30 µM) [%]
Cc1cccc(-c2cnc(NCCc3ccccc3)c(=O)n2CC(=O)NCc2ccc(C(=N)N)cc2)c1 [Example 85]	42% @ 30	–
N=C(N)c1ccc(CNC(=O)Cn2c(-c3cccc(N)c3)c(Cl)nc(NCCc3ccccc3)c2=O)cc1 [Example 86]	26% @ 30	–
N=C(N)c1ccc(CNC(=O)Cn2c(-c3cccc(N)c3)c(Cl)nc(NC3CCC3)c2=O)cc1 [Example 90]	16% @ 30	–
N=C(N)c1ccc(CNC(=O)Cn2c(-c3cccc(N)c3)cnc(NC3CCC3)c2=O)cc1 [Example 92]	18% @ 30	–
Cc1c(N)cccc1-c1cnc(NC(C)C)c(=O)n1CC(=O)NCc1ccc(C(=N)N)cc1 [Example 98]	10% @ 30	–
N=C(N)c1ccc(CNC(=O)Cn2c(-c3ccsc3)c(Cl)nc(NCc3ccccc3)c2=O)cc1 [Example 1517-01]	0%	–
C[C@@H](C(=O)NCc1ccc(C(=N)N)cc1)n1c(-c2ccccc2)c(Cl)nc(NCc2ccccc2)c1=O [Example 1517-03]	0%	–
CSCC(C(=O)NCc1ccc(C(=N)N)cc1)n1c(-c2ccccc2)c(Cl)nc(NCc2ccccc2)c1=O (stereo not drawn) [Example 1517-04]	0%	–
C[C@H](C(=O)NCc1ccc(C(=N)N)cc1)n1c(-c2ccccc2)c(Cl)nc(NCc2ccccc2)c1=O [Example 1517-05]	0%	–
N=C(N)c1ccc(CNC(=O)Cn2c(-c3c(Cl)cccc3Cl)c(Cl)nc(NCc3ccccc3)c2=O)cc1 [Example 1517-06]	0%	–
N=C(N)c1ccc(CNC(=O)Cn2c(-c3ccsc3)c(Cl)nc(NC3CCC3)c2=O)cc1 [Example 1517-07]	0%	–
C[C@@H](C(=O)NCc1ccc(C(=N)N)cc1)n1c(-c2ccccc2)c(Cl)nc(NC2CCC2)c1=O [Example 1517-09]	0%	–
CSCC(C(=O)NCc1ccc(C(=N)N)cc1)n1c(-c2ccccc2)c(Cl)nc(NC2CCC2)c1=O (stereo not drawn) [Example 1517-10]	0%	–
C[C@H](C(=O)NCc1ccc(C(=N)N)cc1)n1c(-c2ccccc2)c(Cl)nc(NC2CCC2)c1=O [Example 1517-11]	0%	–
N=C(N)c1ccc(CNC(=O)Cn2c(-c3c(Cl)cccc3Cl)c(Cl)nc(NC3CCC3)c2=O)cc1 [Example 1517-12]	–	0
N=C(N)c1ccc(CNC(=O)Cn2c(-c3ccsc3)c(Cl)nc(NCCc3ccccc3)c2=O)cc1 [Example 1517-13]	–	0
C[C@@H](C(=O)NCc1ccc(C(=N)N)cc1)n1c(-c2ccccc2)c(Cl)nc(NCCc2ccccc2)c1=O [Example 1517-15]	–	0
CSCC(C(=O)NCc1ccc(C(=N)N)cc1)n1c(-c2ccccc2)c(Cl)nc(NCCc2ccccc2)c1=O (stereo not drawn) [Example 1517-16]	–	0
C[C@H](C(=O)NCc1ccc(C(=N)N)cc1)n1c(-c2ccccc2)c(Cl)nc(NCCc2ccccc2)c1=O [Example 1517-17]	–	0
N=C(N)c1ccc(CNC(=O)Cn2c(-c3c(Cl)cccc3Cl)c(Cl)nc(NCCc3ccccc3)c2=O)cc1 [Example 1517-18]	–	0
N=C(N)c1ccc(CNC(=O)Cn2c(-c3ccsc3)c(Cl)nc(NCCc3cccc(Cl)c3)c2=O)cc1 [Example 1517-19]	–	0
C[C@H](C(=O)NCc1ccc(C(=N)N)cc1)n1c(-c2ccccc2)c(Cl)nc(NCCc2cccc(Cl)c2)c1=O [Example 1517-23]	–	0
